Data published in US11214803B2, “Modulators of YAP1 expression” (Ionis Pharmaceuticals, Inc., priority 2019, dated 2022).
Strand notation (5' to 3'): a small letter for the sugar, then the base; units joined by * are phosphorothioate-linked, units joined directly phosphodiester-linked; [ ] holds rarer units or linkages, { } end groups; capitals alone tell only the bases. k = constrained ethyl (cEt); [5mC] = 5-methylcytosine; d = 2'-deoxy (DNA)

Key:
[1] = test system: Yap1 mRNA; assay: Dose-dependent inhibition of human Yap1 in A-431 cells (Example 8, 10,000 cells per well, RTS4814); assay type: cell-based; settings: for Yap1 mRNA, % UTC: A-431 cells, 10,000 cells per well; for IC50 / % UTC (Yap1 mRNA): A-431 cells
Outline: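 Yap1 mRNA, normalized to RIBOGREEN total RNA and expressed as % untreated control, was read with RTS4814 about 48 h after free-uptake oligonucleotide treatment of A-431 cells at 10,000 cells/well. IC50 derived by linear regression of log/linear data.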

[2] = test system: Yap1 mRNA; assay: Antisense inhibition of human Yap1 in A-431 cells by cEt gapmers, single dose (Example 3, RTS36584); assay type: cell-based
Outline: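 Single-dose free-uptake screen of 3-10-3 cEt gapmers in A-431 cells at 2,000 nM over about 48 h. Values are % untreated control Yap1 mRNA.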

[3] = 31.3 nM, free uptake, approximately 48 hours, RTS4814
[4] = 125.0 nM, free uptake, approximately 48 hours, RTS4814
[5] = 500.0 nM, free uptake, approximately 48 hours, RTS4814
[6] = 2000.00 nM, free uptake, approximately 48 hours, RTS4814
[7] = free uptake, approximately 48 hours, RTS4814, linear regression on log/linear plot
[8] = Table 34, Yap1 mRNA as percent of untreated control, 3-10-3 cEt gapmers targeting SEQ ID NO: 1 and 2, single dose
[9] = Table 28, Yap1 mRNA as percent of untreated control, 3-10-3 cEt gapmers targeting SEQ ID NO.: 1, and 2
[10] = Table 29, Yap1 mRNA as percent of untreated control, 3-10-3 cEt gapmers targeting SEQ ID NO.: 1, and 2
[11] = Table 27, Yap1 mRNA by 3-10-3 cEt gapmers targeting SEQ ID NO.: 1, and 2, percent of untreated control
[12] = Table 26, Yap1 mRNA by 3-10-3 cEt gapmers targeting SEQ ID NO.: 1, and 2, percent of untreated control
[13] = Table 35, Yap1 mRNA as percent of untreated control, 3-10-3 cEt gapmers targeting SEQ ID NO: 1 and 2, single dose

Substance	Yap1 mRNA, % UTC [1, 3] [% UTC]	Yap1 mRNA, % UTC [1, 4] [% UTC]	Yap1 mRNA, % UTC [1, 5] [% UTC]	Yap1 mRNA, % UTC [1, 6] [% UTC]	IC50 [1, 7] [nM]	YAP1 (% UTC) [2, 8] [% UTC]	YAP1 (% UTC) [2, 9] [% UTC]	YAP1 (% UTC) [2, 10] [% UTC]	% UTC (Yap1 mRNA) ([1]; 31.3 nM) [% UTC]	% UTC (Yap1 mRNA) ([1]; 125.0 nM) [% UTC]	% UTC (Yap1 mRNA) ([1]; 500.0 nM) [% UTC]	% UTC (Yap1 mRNA) ([1]; 2000.00 nM) [% UTC]	IC50 ([1]; Yap1 mRNA) [nM]	YAP1 (% UTC) [2, 11] [% UTC]	YAP1 (% UTC) [2, 12] [% UTC]	YAP1 (% UTC) [2, 13] [% UTC]
1074420 (kG*kA*kT*dT*d[5mC]*dT*dT*dT*dA*dG*dA*dG*d[5mC]*k[5mC]*kA*kA; antisense) [compound 1074420]	38	8	3	2	< 20	2										
1076494 (k[5mC]*kT*kA*dA*dT*dT*dG*dA*dA*dG*d[5mC]*dT*dG*kG*k[5mC]*kA; antisense) [compound 1076494]	34	7	3	2	< 20		3									
1074351 (antisense kA*kT*kG*d[5mC]*dT*dT*dA*dG*dT*d[5mC]*d[5mC]*dA*d[5mC]*kT*kG*kT) [compound 1074351]	69	33	13	7	100			7								
1074580 (DNA kA*k[5mC]*k[5mC]*dA*d[5mC]*dT*dA*dT*dA*dA*dA*dG*d[5mC]*kT*kT*kA; further chemistry not given here) [compound 1074580]						5			55	18	8	5	< 20			
1076143 (kG*kA*kT*dA*d[5mC]*dG*dA*dA*dA*dA*dA*dA*dG*k[5mC]*k[5mC]*kA; antisense) [compound 1076143]	81	48	20	9	100			8								
1075757 (k[5mC]*kT*kT*dA*dA*dT*dA*d[5mC]*dA*dT*dT*dA*dT*kT*k[5mC]*k[5mC]; antisense) [compound 1075757]	43	14	5	2	< 20									2		
1074607 (DNA kA*kA*kG*dG*dT*dA*dT*dA*dA*dT*d[5mC]*dA*dT*kG*kA*kT) [compound 1074607]	45	22	10	5	< 20			4								
1075916 (antisense k[5mC]*kA*kA*dT*dT*dT*dA*dG*dG*dA*dT*dG*d[5mC]*k[5mC]*kT*kT) [compound 1075916]	73	34	14	8	100										6	
1074548 (kA*kT*k[5mC]*dT*dA*d[5mC]*d[5mC]*dG*dT*dA*dT*dG*d[5mC]*k[5mC]*k[5mC]*kA; antisense) [compound 1074548]						4			50	15	7	8	< 20			
1074509 (kT*kG*kT*dT*dA*dT*dG*dT*dT*dT*dG*dG*dG*kT*kG*kT; antisense) [compound 1074509]	44	12	6	5	< 20									5		
1074453 (kG*kT*kG*dA*d[5mC]*dT*dA*dA*dT*dG*dA*dT*dA*kG*k[5mC]*kA; antisense) [compound 1074453]									51	18	9	5	< 20			4
1074613 (DNA k[5mC]*kA*kT*dA*dG*d[5mC]*dT*dT*dA*dT*dA*dT*dT*kG*kA*kA; antisense) [compound 1074613]									63	23	9	6	40			7
1076430 (k[5mC]*kG*kT*dT*dA*dT*dA*dA*dG*dA*dT*dG*dT*kG*k[5mC]*kT; antisense) [compound 1076430]	42	14	6	4	< 20		4									
1075055 (antisense k[5mC]*kT*kA*dT*dT*dA*dA*dG*dT*dG*dA*dG*d[5mC]*kT*kT*kT) [compound 1075055]	60	20	6	4	30			4								
1074445 (kT*kG*kA*dT*dA*dG*d[5mC]*dA*d[5mC]*dT*dA*dG*dG*kA*kG*kG; antisense) [compound 1074445]	57	19	8	6	< 20									6		
1074447 (kA*kA*kT*dG*dA*dT*dA*dG*d[5mC]*dA*d[5mC]*dT*dA*kG*kG*kA; antisense) [compound 1074447]	47	20	8	5	< 20			4								
1074639 (antisense kT*kA*kG*dA*dT*dT*dT*dT*dG*dT*dA*dA*dT*kT*kG*kG) [compound 1074639]	46	18	7	5	< 20			3								
1075983 (kA*kT*k[5mC]*dG*dA*dA*dA*dA*dG*d[5mC]*dA*dA*dA*k[5mC]*kT*k[5mC]; antisense) [compound 1075983]	81	46	17	6	100			5								
1075118 (k[5mC]*kT*kA*dT*dT*dT*dA*d[5mC]*dT*d[5mC]*dT*dG*dT*k[5mC]*kA*k[5mC]; antisense) [compound 1075118]	85	36	8	4	100		4									
1076556 (kG*kT*kA*dT*dA*dG*dG*d[5mC]*dA*dG*dA*dA*dG*k[5mC]*kA*kA; antisense) [compound 1076556]	72	46	19	11	100										9	
1076462 (kT*k[5mC]*kA*dG*dA*dA*dG*dG*dA*dT*dA*dT*dG*k[5mC]*kA*kG; antisense) [compound 1076462]	61	22	8	5	30		6									
1074676 (antisense k[5mC]*kA*kA*dA*dT*dT*dA*dT*dA*dG*dG*d[5mC]*dA*k[5mC]*kT*k[5mC]) [compound 1074676]						4			54	16	6	5	< 20			
1076460 (kT*kA*kA*dT*dA*dT*dA*dG*d[5mC]*d[5mC]*d[5mC]*d[5mC]*dT*kT*k[5mC]*kA; antisense) [compound 1076460]	79	53	25	12	200										7	
1076174 (kG*kA*kT*dA*dT*dA*dT*dG*dG*dT*dA*dG*d[5mC]*kA*kT*kA; antisense) [compound 1076174]	58	21	7	4	< 20		3									
1076085 (kA*k[5mC]*kT*dA*dA*dT*dA*dG*dG*d[5mC]*d[5mC]*dA*dT*k[5mC]*kT*kG; antisense) [compound 1076085]									70	34	14	9	100			7
